Legend:
Notch = assay: IL-10 expression in lymphatic node cells after transfer of OVA-specific Th cells and OVA/CpG immunization (Example 12); type: in vivo; settings: mice received 10 μM/kg; lymphatic node cells after 5 days; FIG. 13
Method: 1·10^7 antigen specific (OVA-TZR transgenic) naive Th cells were transferred into recipient mice which were subsequently immunized s.c. with 50 μg of OVA/20 μg of CpG. After 5 days the lymphatic node cells were restimulated with PMA/ionomycin and analyzed using intracellular cytokine staining. IFN-γ/IL-10 double-positive cells were induced under these conditions. The expression of IL-10 was blocked in mice which had received 10 μM/kg of a Notch inhibitor (γ-secretase inhibitor, DBZ, Syncom) (FIG. 13).

[1] = system: CD11c-positive dendritic cells; assay: Expression of Notch ligands in dendritic cells after TLR stimulation (Example 10); type: cell-based, mice; settings: stimulation for 15 h; 50 μg/ml pIC, 1 μg/ml LPS, 1 μg/ml flagellin or 1 μM CpG; FIG. 11
Method: CD11c-positive dendritic cells were isolated from spleen and lymphatic nodes of naive mice using flow cytometry and stimulated with 50 μg/ml pIC (TLR3), 1 μg/ml LPS (TLR4), 1 μg/ml flagellin (TLR5) or 1 μM CpG (TLR9) for 15 h.

Notch signaling pathway [2] = assay: IL-10 expression of human T cells cocultured with plasmacytoid or myeloid dendritic cells (Example 15); type: cell-based; settings: 85 nM inhibitor, SEB 1 μg/ml, 6 days
Notch signaling pathway [3] = assay: IL-10 induction in T helper cells cocultured with A20-B cells expressing Notch ligands DII-1 or DII-4 (Example 9); type: cell-based, mouse; settings: 125 nM inhibitor; IL-12 10 ng/ml, OVA peptide, 5 days, intracellular staining; FIG. 10A
Method: Antigen-specific (OVA-TZR transgenic) naive CD4+CD25-CD62L+T helper cells were isolated using flow cytometry, cultured with A20-B cells (at a ratio of 2:1) in the presence of IL-12 (10 ng/ml), which cells express the Notch ligands DII-1 or DII-4, and stimulated with OVA peptide (0.2 μg/ml). After 5 days the cells were restimulated with PMA/ionomycin, and their cytokine expression was analyzed using intracellular staining.
This induction can be blocked in a specific manner by an inhibitor of the Notch signaling pathway (γ-secretase inhibitor, 125 nM Insolution γ-secretase inhibitor X, Calbiochem) (FIG. 10A). Further coculturing in the presence of the DII-1 and DII-4 ligands dramatically increases the IL-10 production (FIG. 10B).

Notch signaling pathway [4] = assay: IL-10 induction in T helper cells cultured with CD11c+ dendritic cells, IL-12 and/or CpG (Example 11); type: cell-based, mouse; settings: 125 nM inhibitor, OVA peptide, 5 days, FIG. 12
Method: Antigen-specific (OVA-TZR transgenic) naive CD4+CD25-CD62L+T helper cells were isolated using flow cytometry, cultured with CD11c+ dendritic cells from spleen and lymphatic nodes (at a ratio of 20:1) in the presence of IL-12 (10 ng/ml) and/or 1 μM CpG and stimulated with OVA peptide (0.2 μg/ml). After 5 days the cells were restimulated with PMA/ionomycin, and their cytokine expression was analyzed using intracellular staining.
The expression of IL-10 can be blocked by a specific inhibitor of the Notch signaling pathway (γ-secretase inhibitor, Calbiochem, 125 nM).

STAT4 = assay: IL-10 production (ELISA) of Notch3IC-transduced Th cells cultured with interleukin 27 (Example 5); type: cell-based, mice; settings: 10 ng/ml interleukin 27, wild-type vs STAT4-deficient, FIG. 6
Method: Naive CD4+-CD25-CD62L+T helper cells from wild-type (C57BU6) or STAT4-deficient mice were isolated using flow cytometry. The cells were subsequently cultured with irradiated (30 Gy) MHCII+ antigen-presenting cells at a ratio of 1:4 in the presence of interleukin 27 (10 ng/ml). Stimulation was effected polyclonally using 0.5 μg/ml anti-CD3 and 1 μg/ml anti-CD28. After 24 h the cells were retro-virally transduced with active Notch3 (Notch3IC). To this end, the cells were centrifuged with virus supernatant for 75 min at 750×g and 32° C. After 5 days the cells were restimulated with PMA/ionomycin, and their cytokine production was analyzed using ELISA.
No IL-10 production is observed in the event of STAT4-deficient cells.

Molecule: C[C@H](NC(=O)Cc1cc(F)cc(F)c1)C(=O)N[C@@H]1C(=O)N(C)c2ccccc2-c2ccccc21 [DBZ]
- expression of IL-10 (IFN-γ/IL-10 double-positive cells) (Notch): blocked

Molecule: flagellin
- Expression of Delta-like 1 [1]: largely unchanged
- Expression of Jagged 1 [1]: largely unchanged
- expression of the Delta-like 4 Notch ligand [1]: enhanced

Molecule: CC(C)C[C@H](NC(=O)[C@H](Cc1ccccc1)C[C@@H](O)[C@H](Cc1ccccc1)NC(=O)OC(C)(C)C)C(=O)N[C@@H](Cc1ccccc1)C(N)=O [Insolution γ-secretase inhibitor X]
- IL-10 expression, naive T cells cocultured with plasmacytoid dendritic cells (Notch signaling pathway [2]; FIG. 16A): blocked
- IL-10 production, memory T cells cocultured with plasmacytoid or myeloid dendritic cells (Notch signaling pathway [2]; FIG. 16B): blocked in either case
- IL-10 production induced by coculturing with Delta-like ligands (Notch signaling pathway [3]): blocked
- expression of IL-10 in the T cells (Notch signaling pathway [4]): blocked

B1: IL-27: STAT4-activating cytokine of the IL-12 family (protein, UniProt Q8NEV9 29-243; Q14213 21-229, looked up)
Interleukin-27 subunit alpha: FPRPPGRPQLSLQELRREFTVSLHLARKLLSEVRGQAHRFAESHLPGVNLYLLPLGEQLPDVSLTFQAWRRLSDPERLCFISTTLQPFHALLGGLGTQGRWTNMERMQLWAMRLDLRDLQRHLRFQVLAAGFNLPEEEEEEEEEEEEERKGLLPGALGSALQGPAQVSWPQLLSTYRLLHSLELVLSRAVRELLLLSKAGHSVWPLGFPTLSPQP
Interleukin-27 subunit beta: RKGPPAALTLPRVQCRASRYPIAVDCSWTLPPAPNSTSPVSFIATYRLGMAARGHSWPCLQQTPTSTSCTITDVQLFSMAPYVLNVTAVHPWGSSSSFVPFITEHIIKPDPPEGVRLSPLAERQLQVQWEPPGSWPFPEIFSLKYWIRYKRQGAARFHRVGPIEATSFILRAVRPRARYYVQVAAQDLTDYGELSDWSLPATATMSLGK
- IL-10 production together with Notch, STAT4-dependent (STAT4): induction of IL-10
